The results in this text go back to ChEMBL document CHEMBL1123525, “Synthesis and biological activities of 5-deaza analogues of aminopterin and folic acid” (1986).

One assay relates to P388. Put plainly: Compound was evaluated for inhibitory activity against P-388 leukemic cells in vitro; Range 1.8x10E-8 to 2x10E-7 M. It counts as functional. As to conditions: Mus musculus, read-out: ID50 (the source's name).
A further assay deals with L1210. Put plainly: Compound was evaluated for inhibitory activity against L-1210 leukemic cells in vitro; Range 1.8x10E-8 to 2x10E-7 M. It counts as functional. As to conditions: Mus musculus, read-out: ID50 (the source's name).

pIC50: −log10 of the molar value.

Take `Cc1c(CNc2ccc(C(=O)NC(CCC(=O)O)C(=O)O)cc2)cnc2nc(N)nc(N)c12` (configuration not stated): the pIC50 with P388 and with L1210 was 6.70 in each case.
